Consider 7 molecules from patent publication US20220048888A1, “PYRIMIDINYL-HETEROARYLOXY-NAPHTHYL COMPOUNDS AND METHODS OF USE” (Genentech, Inc., priority 2018, published 2022).

Usually IC50 stands for the midpoint of a concentration-inhibition curve. Read a high IC50 as lower potency.

SMILES strings stand for the structures.

T1 sequence (O75460 547-977 D688N): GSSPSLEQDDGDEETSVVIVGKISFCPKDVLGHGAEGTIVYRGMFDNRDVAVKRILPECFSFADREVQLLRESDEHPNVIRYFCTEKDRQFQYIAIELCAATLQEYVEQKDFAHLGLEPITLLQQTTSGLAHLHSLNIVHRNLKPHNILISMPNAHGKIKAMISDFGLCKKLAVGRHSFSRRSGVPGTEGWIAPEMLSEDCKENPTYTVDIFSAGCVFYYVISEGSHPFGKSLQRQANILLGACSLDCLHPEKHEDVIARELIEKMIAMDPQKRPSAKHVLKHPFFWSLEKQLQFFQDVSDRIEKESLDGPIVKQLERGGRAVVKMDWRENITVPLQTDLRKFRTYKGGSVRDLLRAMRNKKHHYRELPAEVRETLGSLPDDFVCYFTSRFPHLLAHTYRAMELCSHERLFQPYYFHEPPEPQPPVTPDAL

The first data set concerns the target T1, kinase domain of IRE1 alpha (Homo sapiens, UniProt O75460, D688N).
T1 construct: (KR, AA G547-L977, D688N); made in house; host or cells: Sf9 insect cells
Description: IRE1α TR-FRET competition binding assay. The settings on record: Kinase Tracer 236 0.1 μM; kinase dead IRE1 alpha KR construct. As for the experimental part: To determine the affinity of compound binding to the kinase domain of IRE1 alpha, a Time Resolved Fluorescence Resonance Energy Transfer (TR-FRET) competition assay was used. A His-tagged IRE1 alpha kinase dead construct containing the kinase and RNase domains (KR, AA G547-L977, D688N) was expressed in Sf9 insect cells. The purified protein (final concentration 0.006 OA micromolar) was pre-incubated with anti-His Europium labeled antibody (Life Technologies PV5596, final concentration 0.002 OA micromolar) for one hour at 4° C. in 1×TR-FRET Assay Buffer (50 mM HEPES, pH 7.5, 10 mM MgCl2, 0.083 mM Brij 35, 1 mM DTT, and 0.1% bovine gamma globulin) prior to addition to test compounds. A fluorescent labeled probe based on an ATP competitive inhibitor (Kinase Tracer 236, Life Technologies PV5592) is added to a final concentration of 0.1 μM (micromolar). Reactions were carried out for one hour at room temperature in a final volume of 20 μL (microliter) in 384 well white ProxiPlates (Perkin Elmer 6008289). Binding of the tracer to the IRE1 protein alpha was detected in an Envision instrument (PerkinElmer) equipped with a TRF laser option and a LANCE/Delfia Dual/Bias D400/D630 mirror (Ex 347 nm, 1st Em 665 nm, 2nd Em 615 nm).
Exemplary compounds depicted in Table 1 were tested in the IRE1α binding assays.
(Time-resolved FRET reads energy transfer from a long-lived donor to a nearby acceptor.)
The molecule `Cc1ccc2c(NS(=O)(=O)c3ccccc3Cl)cccc2c1Oc1nnccc1-c1ccnc(N[C@H]2CCCNC2)n1` [Compound 1, (S)-2-chloro-N-(6-methyl-5-((4-(2-(piperidin-3-ylamino)pyrimidin-4-yl)pyridazin-3-yl)oxy)naphthalen-1-yl)benzenesulfonamide] displayed an IC50 of 6.1 nM.

`Cc1ccc2c(NC(=O)C3CC3)cccc2c1Oc1nnccc1-c1ccnc(N[C@H]2CCCNC2)n1` [Compound 2, (S)-N-(6-methyl-5-((4-(2-(piperidin-3-ylamino)pyrimidin-4-yl)pyridazin-3-yl)oxy)naphthalen-1-yl)cyclopropanecarboxamide]: the IC50 amounted to 38 nM.

The molecule `CCCS(=O)(=O)Nc1cccc2c(Oc3nnccc3-c3ccnc(N[C@H]4CCCNC4)n3)c(C)ccc12` [Compound 3, (S)-N-(6-methyl-5-((4-(2-(piperidin-3-ylamino)pyrimidin-4-yl)pyridazin-3-yl)oxy)naphthalen-1-yl)propane-1-sulfonamide] returned an IC50 of 12 nM.

In turn, `CCCS(=O)(=O)Nc1c(F)ccc2c(Oc3ncncc3-c3ccnc(N[C@@H]4CNC[C@@H](F)C4)n3)c(C)ccc12` [Compound 4, N-(2-fluoro-5-((2-(((3S,5S)-5-fluoropiperidin-3-yl)amino)-[4,5′-bipyrimidin]-4′-yl)oxy)-6-methylnaphthalen-1-yl)propane-1-sulfonamide] gave an IC50 of 3.3 nM.

For `Cc1ccc2c(NS(=O)(=O)CCC(C)(F)F)c(F)ccc2c1Oc1nnccc1-c1ccnc(N[C@@H]2CNC[C@@H](F)C2)n1` [Compound 5, 3,3-difluoro-N-[2-fluoro-6-methyl-5-[4-[2-[[-(3S,5S)-5-fluoro-3-piperidyl]amino]pyrimidin-4-yl]pyridazin-3-yl]oxy-1-naphthyl]butane-1-sulfonamide], the IC50 is 3.1 nM.

Take `CCCS(=O)(=O)Nc1c(F)ccc2c(Oc3nnccc3-c3ccnc(N[C@@H]4CNC[C@@H](F)C4)n3)c(C)ccc12` [Compound 6, N-(2-fluoro-5-((4-(2-(((3S,5S)-5-fluoropiperidin-3-yl)amino)pyrimidin-4-yl)pyridazin-3-yl)oxy)-6-methylnaphthalen-1-yl)propane-1-sulfonamide]: the IC50 is 7.1 nM.

The next data set deals with cells.
Assay: not given
The settings on record: high levels; cited from earlier work.
For the molecule `Cc1cc(=O)oc2c(C=O)c(O)ccc12` [Compound 4μ8C], the toxicity in cells entry was “no measurable toxicity”.
